Assay results: patent publication US8618289B2 (Ambit Biosciences Corporation, priority 2008, dated 2013)
pEC50, pIC50, pKd: −log10 of the molar value.

Tests used:
[1] = molecular target: RAF kinases (Homo sapiens, UniProt P15056); test: biochemical
[2] = molecular target: RAF kinases (Homo sapiens, UniProt P15056, V600E); test: biochemical
[3] = molecular target: RAF kinases (Homo sapiens, UniProt P04049); test: biochemical
[4] = tested on: MEK1 phosphorylation in the A375 human melanoma cell line; test: cells; settings: A-375, read-out: pMEK IC50
[5] = tested on: A375 cells; test: cells; settings: Homo sapiens, A-375, read-out: A375 Viability EC50
Method: The following day, the medium was replaced with 0.5% FBS in M3 for overnight incubation. […] The cells were incubated with compound or control for 72 hours at 37° C. under 10% CO2. Following incubation, Cell Titer Blue reagent (Promega) was added to each well containing compounds or controls, and then incubated for 3 hours at 37° C. under 10% CO2. Proliferation was measured by fluorescence with excitation at 560 nm and emission at 590 nm using SoftMax Pro.

Sequence of RAF kinases (Homo sapiens, UniProt P15056, V600E) (P15056 whole entry V600E): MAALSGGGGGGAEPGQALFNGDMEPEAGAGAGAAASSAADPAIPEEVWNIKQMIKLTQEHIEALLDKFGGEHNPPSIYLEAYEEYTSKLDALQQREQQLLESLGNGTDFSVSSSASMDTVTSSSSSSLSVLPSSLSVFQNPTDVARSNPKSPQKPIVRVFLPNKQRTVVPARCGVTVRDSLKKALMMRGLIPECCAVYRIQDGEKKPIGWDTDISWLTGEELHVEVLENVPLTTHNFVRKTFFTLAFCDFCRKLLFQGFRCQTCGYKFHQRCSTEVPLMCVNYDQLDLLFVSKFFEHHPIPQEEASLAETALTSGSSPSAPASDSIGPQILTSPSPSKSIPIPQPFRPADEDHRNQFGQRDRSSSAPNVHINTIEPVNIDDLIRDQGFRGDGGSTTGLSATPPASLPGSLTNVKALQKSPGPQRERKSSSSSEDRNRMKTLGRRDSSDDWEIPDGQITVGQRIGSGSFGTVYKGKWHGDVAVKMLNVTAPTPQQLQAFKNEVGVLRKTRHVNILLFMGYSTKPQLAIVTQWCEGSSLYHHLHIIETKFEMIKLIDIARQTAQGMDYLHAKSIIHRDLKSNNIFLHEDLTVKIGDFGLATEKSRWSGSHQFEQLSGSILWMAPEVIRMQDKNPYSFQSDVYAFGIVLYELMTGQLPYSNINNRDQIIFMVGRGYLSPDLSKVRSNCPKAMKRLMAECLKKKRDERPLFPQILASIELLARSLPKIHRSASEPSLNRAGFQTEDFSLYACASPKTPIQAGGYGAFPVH
Sequence of RAF kinases (Homo sapiens, UniProt P04049) (P04049 whole entry): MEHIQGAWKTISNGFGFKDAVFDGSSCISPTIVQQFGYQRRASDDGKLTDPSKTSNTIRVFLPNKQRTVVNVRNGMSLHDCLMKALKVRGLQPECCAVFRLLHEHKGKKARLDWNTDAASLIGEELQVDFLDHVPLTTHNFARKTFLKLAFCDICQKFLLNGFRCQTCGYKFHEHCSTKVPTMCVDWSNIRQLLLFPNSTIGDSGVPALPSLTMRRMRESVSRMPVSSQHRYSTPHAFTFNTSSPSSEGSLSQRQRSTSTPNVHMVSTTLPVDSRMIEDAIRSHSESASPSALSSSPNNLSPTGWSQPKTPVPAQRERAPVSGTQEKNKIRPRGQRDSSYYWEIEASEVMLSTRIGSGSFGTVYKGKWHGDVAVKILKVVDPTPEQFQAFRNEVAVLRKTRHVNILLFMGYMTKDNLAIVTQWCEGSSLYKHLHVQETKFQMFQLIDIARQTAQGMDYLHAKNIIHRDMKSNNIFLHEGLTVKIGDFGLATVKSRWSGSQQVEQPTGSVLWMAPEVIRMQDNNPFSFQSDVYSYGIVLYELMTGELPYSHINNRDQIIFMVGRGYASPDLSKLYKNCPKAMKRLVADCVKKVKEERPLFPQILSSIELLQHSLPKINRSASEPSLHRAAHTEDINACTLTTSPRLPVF
Sequence of RAF kinases (Homo sapiens, UniProt P15056) (P15056 whole entry): as the sequence (P15056 whole entry V600E) above, with E600V counted along it

SMILES | pKd [1] | pKd [2] | pKd [3] | pIC50 [4] | pEC50 [5]
COc1cc2ncnc(Oc3cccc(NC(=O)Nc4cc(C(C)(C)F)no4)c3)c2cc1OCCCS(C)(=O)=O [Ex 42, 1-(3-(2-fluoropropan-2-yl)isoxazol-5-yl)-3-(3-(7-methoxy-6-(3-(methylsulfonyl)propoxy)quinazolin-4-yloxy)phenyl)urea] | > 6.60 | > 6.60 | > 6.60 | 6.30 to 6.60 | 6.00 to 6.30
COc1ccc2ncnc(Sc3cccc(NC(=O)Nc4cc(C(C)(C)C)on4)c3)c2c1 [Ex 49, 1-(5-tert-butylisoxazol-3-yl)-3-(3-(6-methoxyquinazolin-4-ylthio)phenyl)urea] |  | 6.30 to 6.60 | 6.00 to 6.30 | 6.00 to 6.30 | < 6.00
CCOc1cc2ncnc(Sc3cccc(NC(=O)Nc4cc(C(C)(C)C)on4)c3)c2cc1OC [Ex 50, 1-(5-tert-butylisoxazol-3-yl)-3-[3-(7-ethoxy-6-methoxyquinazolin-4-ylthio)phenyl]urea] | 6.00 to 6.30 | 6.30 to 6.60 | 6.30 to 6.60 | 6.30 to 6.60 | < 6.00
COc1cc2c(Sc3cccc(NC(=O)Nc4cc(C(C)(C)C)on4)c3)ncnc2cc1OCCN1CCC(CO)CC1 [Ex 86, 1-(5-tert-butylisoxazol-3-yl)-3-(3-(7-(2-(4-(hydroxymethyl)piperidin-1-yl)ethoxy)-6-methoxyquinazolin-4-ylthio)phenyl)urea] |  | 6.30 to 6.60 | 6.00 to 6.30 | > 6.60 | < 6.00
COCCOc1ccc2ncnc(Sc3cccc(NC(=O)Nc4cc(C(C)(C)C)on4)c3)c2c1 [Ex 87, 1-(5-tert-butylisoxazol-3-yl)-3-(3-(6-(2-methoxyethoxy)quinazolin-4-ylthio)phenyl)urea] |  | 6.30 to 6.60 | 6.00 to 6.30 | 6.30 to 6.60 | < 6.00
COc1cc(OC2CCOCC2)c2c(Oc3cccc(NC(=O)Nc4cc(C(C)(C)C)on4)c3)ncnc2c1 [Ex 94, 1-(5-tert-butylisoxazol-3-yl)-3-{3-[7-methoxy-5-(tetrahydro-2H-pyran-4-yloxy)quinazolin-4-yloxy]phenyl}urea] |  | 6.30 to 6.60 | 6.30 to 6.60 | 6.30 to 6.60 | < 6.00
COc1cc(NC(=O)Nc2cccc(Sc3ncnc4cc(OC)c(OC)cc34)c2)cc(C(F)(F)F)c1 [Ex 115, 1-(3-(6,7-dimethoxyquinazolin-4-ylthio)phenyl)-3-(3-methoxy-5-(trifluoromethyl)phenyl)urea] | 6.00 to 6.30 | 6.30 to 6.60 | 6.30 to 6.60 | < 6.00 | < 6.00
COc1cc(NC(=O)Nc2cccc(Oc3ncnc4cc(OC)c(OC)cc34)c2)cc(C(F)(F)F)c1 [Ex 116, 1-(3-(6,7-dimethoxyquinazolin-4-yloxy)phenyl)-3-(3-methoxy-5-(trifluoromethyl)phenyl)urea] | 6.00 to 6.30 | 6.30 to 6.60 | 6.30 to 6.60 | < 6.00 | < 6.00
COCCOc1cc(NC(=O)Nc2cccc(Oc3ncnc4cc(OCCOC)c(OC)cc34)c2)cc(C(F)(F)F)c1 [Ex 117, 1-(3-(6-methoxy-7-(2-methoxyethoxy)quinazolin-4-yloxy)phenyl)-3-(3-(2-methoxyethoxy)-5-(trifluoromethyl)phenyl)urea] | 6.00 to 6.30 | 6.30 to 6.60 | 6.30 to 6.60 | < 6.00 | < 6.00
COc1cc2ncnc(Oc3cccc(NC(=O)Nc4cc(C5CCOCC5)no4)c3)c2cc1OC [Ex 123, 1-(3-(6,7-dimethoxyquinazolin-4-yloxy)phenyl)-3-(3-(tetrahydro-2H-pyran-4-yl)isoxazol-5-yl)urea] |  | 6.30 to 6.60 | 6.00 to 6.30 | < 6.00 | < 6.00
COc1cc2ncnc(Oc3cccc(NC(=O)Nc4cc(C(C)(C)C#N)no4)c3)c2cc1OC [Ex 125, 1-(3-(2-cyanopropan-2-yl)isoxazol-5-yl)-3-(3-(6,7-dimethoxyquinazolin-4-yloxy)phenyl)urea] | 6.30 to 6.60 | > 6.60 | 6.30 to 6.60 | 6.30 to 6.60 | < 6.00
COc1cc2ncnc(Oc3cccc(NC(=O)Nc4cc(C(C)(C)F)no4)c3)c2cc1OC [Ex 126, 1-(3-(6,7-dimethoxyquinazolin-4-yloxy)phenyl)-3-(3-(2-fluoropropan-2-yl)isoxazol-5-yl)urea] | 6.30 to 6.60 | > 6.60 | > 6.60 | > 6.60 | 6.00 to 6.30
COCCOc1cc(NC(=O)Nc2cccc(Oc3ncnc4cc(OC)c(OC)cc34)c2)cc(C(F)(F)F)c1 [Ex 129, 1-(3-(6,7-dimethoxyquinazolin-4-yloxy)phenyl)-3-(3-(2-methoxyethoxy)-5-(trifluoromethyl)phenyl)urea] |  | 6.30 to 6.60 | 6.30 to 6.60 | < 6.00 | < 6.00
COc1cc2ncnc(Oc3cccc(NC(=O)Nc4cc(C5(C(F)(F)F)CC5)nn4-c4ccccc4)c3)c2cc1OC [Ex 137, 1-(3-(6,7-dimethoxyquinazolin-4-yloxy)phenyl)-3-(1-phenyl-3-(1-(trifluoromethyl)cyclopropyl)-1H-pyrazol-5-yl)urea] | < 6.00 | 6.00 to 6.30 | < 6.00 | > 6.60 | 6.00 to 6.30
COc1cc2ncnc(Oc3cccc(NC(=O)Nc4cc(Cl)cc(C(F)(F)F)c4)c3)c2cc1OC [Ex 140, 1-(3-chloro-5-(trifluoromethyl)phenyl)-3-(3-(6,7-dimethoxyquinazolin-4-yloxy)phenyl)urea] |  | 6.00 to 6.30 | 6.00 to 6.30 | < 6.00 | < 6.00
COc1cc2ncnc(Oc3cccc(NC(=O)Nc4cc(C(F)(F)F)ccc4Cl)c3)c2cc1OC [Ex 142, 1-(2-chloro-5-(trifluoromethyl)phenyl)-3-(3-(6,7-dimethoxyquinazolin-4-yloxy)phenyl)urea] |  | 6.30 to 6.60 | 6.30 to 6.60 | < 6.00 | < 6.00
COc1cc2ncnc(Oc3cccc(NC(=O)Nc4nccc(C(F)(F)F)n4)c3)c2cc1OC [Ex 143, 1-(3-(6,7-dimethoxyquinazolin-4-yloxy)phenyl)-3-(4-(trifluoromethyl)pyrimidin-2-yl)urea] |  | 6.30 to 6.60 | 6.30 to 6.60 | < 6.00 | < 6.00
COCCOc1cc(NC(=O)Nc2cccc(Oc3ncnc4cc(OC)c(OC)cc34)c2)ccc1C(F)(F)F [Ex 147, 1-(3-(6,7-dimethoxyquinazolin-4-yloxy)phenyl)-3-(3-(2-methoxyethoxy)-4-(trifluoromethyl)phenyl)urea] |  | 6.30 to 6.60 | 6.00 to 6.30 | < 6.00 | < 6.00
COc1cc2ncnc(Oc3cccc(NC(=O)Nc4ccc(C(F)(F)F)c(F)c4)c3)c2cc1OC [Ex 150, 1-(3-(6,7-dimethoxyquinazolin-4-yloxy)phenyl)-3-(3-fluoro-4-(trifluoromethyl)phenyl)urea] | 6.00 to 6.30 | 6.30 to 6.60 | 6.00 to 6.30 | < 6.00 | < 6.00
COc1cc2ncnc(Oc3cccc(NC(=O)Nc4cc(C(C)(CF)CF)no4)c3)c2cc1OC [Ex 159, 1-[3-(1,3-difluoro-2-methylpropan-2-yl)isoxazol-5-yl]-3-[3-(6,7-dimethoxyquinazolin-4-yloxy]phenyl)urea] | 6.00 to 6.30 | 6.30 to 6.60 | 6.00 to 6.30 | 6.30 to 6.60 | < 6.00
COc1cc2ncnc(Oc3cccc(NC(=O)Nc4cc(C5CCCC5)no4)c3)c2cc1OC [Ex 163, 1-(3-cyclopentylisoxazol-5-yl)-3-(3-(6,7-dimethoxyquinazolin-4-yloxy)phenyl)urea] |  | 6.30 to 6.60 | 6.00 to 6.30 | < 6.00 | < 6.00
COc1cc2ncnc(Sc3cccc(NC(=O)Nc4ccc(C(C)(C)C)cc4)c3)c2cc1OC [Ex 174, 1-(4-tert-butylphenyl)-3-(3-(6,7-dimethoxyquinazolin-4-ylthio)phenyl)urea] |  | 6.30 to 6.60 | 6.30 to 6.60 | < 6.00 | < 6.00
COc1cc2ncnc(Sc3cccc(NC(=O)Nc4ccc(C(F)(F)F)cc4)c3)c2cc1OC [Ex 184, 1-(3-(6,7-dimethoxyquinazolin-4-ylthio)phenyl)-3-(4-(trifluoromethyl)phenyl)urea] | 6.00 to 6.30 | 6.30 to 6.60 | 6.30 to 6.60 | 6.30 to 6.60 | 6.00 to 6.30
COc1cc2ncnc(Sc3cccc(NC(=O)Nc4ccc(C(F)(F)F)c(F)c4)c3)c2cc1OC [Ex 188, 1-(3-(6,7-dimethoxyquinazolin-4-ylthio)phenyl)-3-(3-fluoro-4-(trifluoromethyl)phenyl)urea] |  | 6.30 to 6.60 | 6.00 to 6.30 | < 6.00 | < 6.00
COc1cc2ncnc(Sc3cccc(NC(=O)Nc4cc(CN5CCOCC5)cc(C(F)(F)F)c4)c3)c2cc1OC [Ex 189, 1-(3-(6,7-dimethoxyquinazolin-4-ylthio)phenyl)-3-(3-(morpholinomethyl)-5-(trifluoromethyl)phenyl)urea] |  | 6.30 to 6.60 | 6.00 to 6.30 | 6.00 to 6.30 | 6.00 to 6.30
COCCOc1cc2ncnc(Oc3cccc(NC(=O)Nc4cc(C(C)(C)C)nn4-c4ccccc4)c3)c2cc1OC [Ex 210, 1-(3-tert-butyl-1-phenyl-1H-pyrazol-5-yl)-3-(3-(6-methoxy-7-(2-methoxyethoxy)quinazolin-4-yloxy)phenyl)urea] | < 6.00 | < 6.00 | < 6.00 | > 6.60 | 
COCCOc1cc2ncnc(Sc3cccc(NC(=O)Nc4cc(C(C)(C)C)nn4-c4ccc(C)cc4)c3)c2cc1OC [Ex 277, 1-(3-tert-butyl-1-p-tolyl-1H-pyrazol-5-yl)-3-(3-(6-methoxy-7-(2-methoxyethoxy)quinazolin-4-ylthio)phenyl)urea] | < 6.00 | 6.30 to 6.60 | < 6.00 | > 6.60 | 
